{"source": "patent US20250090541A1", "about": "“Methods for Treating Neurodegenerative Disorders” (Praetego Inc, priority 2022, published 2025)", "assay_type_in_all_cases": "in vivo", "key": {"human tau mice": {"test_system": "human tau mice", "assay": "Barnes maze long-term memory, human tau mice", "conditions": "by week 23 of treatment (between week 19 and 23), male and female combined", "from_the_text": "The human tau mouse is a model of sporadic dementia that expresses human non-mutant tau (6 isoforms) in the absence of endogenous mouse tau. The model develops age-associated pathology, with hyperphosphorylated tau detected in cell bodies and dendrites by 3 months of age (Andorfer et al., 2003; J Neurochem 86, 582-590, doi:10.1046/j.1471-4159.2003.01879.x). These mice display abnormal spatial learning by 6 months of age and impaired learning in the Morris water maze with memory loss by 12 months of age, as well as memory deficits in the Barnes maze by 6 months of age (Marquez et al, 2021).\n(§1) Female and male human tau mice (Jax #005491) were treated daily for 25 weeks with PTG-630 trihydrochloride at 1 and 5 mg/kg in drinking water starting at 10 weeks of age (before cognitive deficits appear).\nLearning and memory were assessed using the Barnes maze test and the object recognition test at 6-8, 12-13, 18-19 and 24-25 weeks. Corneal nerves were imaged by corneal confocal microscopy (CCM) at week 6, 9, 12, 18 and 25. Data represent male and female results combined, mean±sem.\nUsing the Barnes maze test, long-term memory was assessed between week 13 and 19 and between week 19 and 23 of treatment (FIG. 1A, B)."}, "Drebrin": {"test_system": "Drebrin", "assay": "Western blot of hippocampus, human tau mice: Drebrin", "conditions": "12 weeks of treatment in drinking water", "from_the_text": "(§2) Mouse Hippocampus were processed for Western blotting analysis of (A) Drebrin (actin binding protein in dendritic spines, role in neuronal growth, a decrease=contributing factor in the pathogenesis of memory disturbance), (B) PSD95 (a post-synaptic protein, role in the regulation of excitatory synapse maturity), and (C) NeuN (neuronal nuclear antigen, biomarker for neurons, decrease=neuronal loss) (FIG. 3)."}, "PSD95": {"test_system": "PSD95", "assay": "Western blot of hippocampus, human tau mice: PSD95", "conditions": "1 and 5 mg/kg, tendency", "protocol": "as §1, §2"}, "NeuN": {"test_system": "NeuN", "assay": "Western blot of hippocampus, human tau mice: NeuN", "conditions": "5 mg/kg", "protocol": "as §1, §2"}, "htau mice [1]": {"test_system": "htau mice", "assay": "Intraepidermal nerve fiber (IENF) quantification in footskin, htau mice", "from_the_text": "A standard measure of associated PNS damage to neuronal tissue and its amelioration is IENF, seen alongside changes in the CNS. […] The amelioration of these PNS effects confirms that PTG-630 readily enters and targets neuronal tissue, whether in the brain or elsewhere in the body."}, "htau mice [2]": {"test_system": "htau mice", "assay": "Motor nerve conduction velocity (NCV), htau mice", "conditions": "htau mice with or without treatment, 8, 16 and 25 weeks", "protocol": "as §1\nMotor nerve conduction velocity (NCV) was measured at 8, 16 and 25 weeks after treatment."}, "4-hydroxynonal (4-HNE)": {"test_system": "4-hydroxynonal (4-HNE)", "assay": "Lipid peroxidation, 4-HNE Oxiselect ELISA in hippocampus homogenates, htau mice", "protocol": "as §1\nLipid peroxidation was assessed using the 4-hydroxynonal (4-HNE) Oxiselect ELISA in hippocampus homogenates. […] It is believed that damage to neuronal tissue occurs to a significant extent via induction of oxidative stress that leads to lipoxidation, so that amelioration by PTG-630 reflects their efficacy via anti-oxidant mechanisms."}, "[3]": {"assay": "Mortality and apparent toxicity, 25 weeks in human tau mice", "conditions": "1 and 5 mg/kg in drinking water", "protocol": "as §1\n• 1—Control (C57B16), N=7 male, N=7 female, Final N=6 male, N=6 female • 2—htau, N=7 male, N=7 female, Final N=7 male, N=6 female • 3—htau+PTG-630 1 mg/kg drinking water, N=7 male, N=7 female, Final N=7 male, N=7 female • 4—htau+PTG-630 5 mg/kg drinking water, N=7 male, N=7 female, Final N=6 male, N=7 female\nOne mouse in group 4 died at week 8 from tooth occlusion."}}}
{"molecule": "Cc1ncc(CN2CCOCC2)c(-c2ncc[nH]2)c1O", "note": "[PTG-630, 4-(1H-imidazol-2-yl)-2-methyl-5-(morpholinomethyl)pyridin-3-ol]", "values": [{"measurement": "long-term memory impairment in Barnes maze", "setting": "human tau mice", "value": "significantly prevented"}, {"measurement": "reduced drebrin levels in hippocampus", "setting": "Drebrin", "value": "significantly (p<0.05) ameliorated"}, {"measurement": "levels of PSD95 protein in hippocampus", "setting": "PSD95", "value": "dose-dependly ameliorate"}, {"measurement": "neuronal loss (NeuN) in hippocampus", "setting": "NeuN", "value": "partially alleviated"}, {"measurement": "IENF in footskin", "setting": "htau mice [1]; female mice", "value": "No difference was noted"}, {"measurement": "decreased IENF in footskin", "setting": "htau mice [1]; male mice, 1 mg/kg", "value": "significantly (p<0.05) ameliorated"}, {"measurement": "Nerve conduction velocity", "setting": "htau mice [2]", "value": "not significantly different from control levels"}, {"measurement": "4-HNE levels in hippocampus", "setting": "4-hydroxynonal (4-HNE); 1 mg/kg", "value": "significantly (p<0.01) reduced HINE levels to control levels"}, {"measurement": "4-HNE levels in hippocampus", "setting": "4-hydroxynonal (4-HNE); 5 mg/kg", "value": "significantly (p<0.01) reduced HINE levels to control levels"}, {"measurement": "apparent toxicity", "setting": "[3]", "value": "No toxicity was apparent"}]}
